Literature values in patent US20240180994A1 (priority 2021, published 2024).
pEC50, pIC50: −log10 of the molar value.

What was measured:
[1] = target: SARS-CoV-2 protease 3CL pro (Severe acute respiratory syndrome coronavirus 2, UniProt P0DTD1)
[2] = tested on: HIV-luc/SARS pseudotyped virus; conditions: read-out: effective dose at 50% of inhibition (EC50%)
cathepsin L = cathepsin L (Homo sapiens, UniProt P07711)
[3] = target: SARS-CoV-2 membrane (M) protein (Severe acute respiratory syndrome coronavirus 2, UniProt P0DTC5); conditions: modeling studies
TNF-α, IL-6 and IL-1β = conditions: daily oral 10-30 mg/kg for 4 weeks, aged rats
TNF-α = conditions: mouse, in vivo
[4] = tested on: TNF-α, IL-1β, MAPKs (p38); conditions: 100 mg/kg, spinal cord injury models

## O=c1c(O)c(-c2ccc(O)cc2)oc2cc(O)cc(O)c12 [Kaempferol]
[1]
  pIC50: 3.93

## O=c1cc(-c2ccc(O)c(O)c2)oc2cc(O)cc(O)c12 [Luteolin]
wild-type SARS-CoV; read-out: EC50% inhibition of cytopathic effect, wild-type SARS-CoV, MTT assay
  pEC50: 4.97
wild-type SARS-CoV; relates to both EC50 values of luteolin
  EC50 values times less than cytotoxicity on the cells in vitro: 15 times
[2]
  pEC50: 5.04

## O=c1c(O)c(-c2ccc(O)c(O)c2)oc2cc(O)cc(O)c12 [Quercetin]
Cathepsin L
  cathepsin L inhibition: inhibit cathepsin L

## O=C(O)/C=C/c1ccc(O)c(O)c1 [caffeic acid]
[3]
  affinity with M protein: higher affinity with the M protein

## CC(/C=C/C=C(\C)C(=O)O[C@@H]1O[C@H](CO[C@@H]2O[C@H](CO)[C@@H](O)[C@H](O)[C@H]2O)[C@@H](O)[C@H](O)[C@H]1O)=C\C=C\C=C(C)\C=C\C=C(/C)C(=O)O[C@@H]1O[C@H](CO[C@@H]2O[C@H](CO)[C@@H](O)[C@H](O)[C@H]2O)[C@@H](O)[C@H](O)[C@H]1O [crocin]
TNF-α, IL-6 and IL-1β
  pro-inflammatory cytokines in renal tissue and serum: significantly reduced pro-inflammatory cytokines, TNF-α, IL-6 and IL-1β

## COc1cc(/C=C/C(=O)O)ccc1O [ferulic acid]
[3]
  affinity with M protein: higher affinity with the M protein

## COc1ccc([C@@H]2CC(=O)c3c(O)cc(O[C@@H]4O[C@H](CO[C@@H]5O[C@@H](C)[C@H](O)[C@@H](O)[C@H]5O)[C@@H](O)[C@H](O)[C@H]4O)cc3O2)cc1O [hesperidin]
TNF-α
  TNF-α in LPS-treated mice: decease TNF-α in mice treated with LPS

## CC1=C(C=O)C(C)(C)CC=C1 [safranal]
[4]
  expression of inflammatory cytokines: decreased the expression of the inflammatory cytokines TNF-α, IL-1β
